Assay results from patent US20220273629A1, “METHODS OF TREATING DISORDERS ASSOCIATED WITH ELEVATED LEVELS OF ANTIBODIES THAT INTERACT WITH THE NMDA RECEPTOR” (Aptinyx Inc., priority 2019, published 2022).

Key:
[1] = target: T1, NR2B surface expression in hNR1/PSD95/NR2B expressing HEK cells (Homo sapiens, UniProt Q13224); test: β-lactamase assay, restoration of NR2B surface expression after purified ANRE patient serum IgG; format: cell-based; details: 45 min purified patient serum IgG 1:50, then 15 min compound at 10 fM, 1 pM, 100 pM, 10 nM; FIG. 1 / FIG. 3
T1 construct: expressed in transfected cells; transient β-lactamase-hGluN2B
Experimental: (§1) Un-transfected (Untfx) cells were used as a negative control for surface β-lactamase activity.
(§2) hNR1/PSD95/NR2B-expressing HEK cells tagged with a β-lactamase enzyme at the N-terminus of NR2B are incubated with a 1:50 dilution of purified patient serum IgG for 45 min. The cells are washed with buffer to remove antibodies and then incubated for 15 min in the presence or absence of each of compounds A, B, or C at concentrations of 10 fM, 1 pM, 100 pM and 10 nM respectively. After said time, the membrane impermeable substrate nitrocefin and ±each of compounds A, B, and C are added. The NR2B N-terminal β-lactamase cleaves nitrocefin, resulting in a change of absorbance to 486 nm. The absorbance at 486 nm is measured every minute for 30 min.
Slopes of optical density are graphed as fold change over the vehicle. N=8; Statistics were determined by one-way ANOVA compared to antibody only (Ab). * p≤0.05, ** p≤0.01, *** p≤0.001, **** p≤0.0001 (FIG. 1).
(§3) Un-transfected (Untfx) cells were used as a negative control for surface β-lactamase activity. Human IgG (Sigma-Aldrich) at a concentration of 0.5 mg/ml was used as a negative control for non-specific receptor internalization.
hNR1/PSD95/NR2B expressing HEK cells tagged with a β-lactamase enzyme at the N-terminus of NR2B are incubated with purified patient serum IgG (1:50 dilution) for 45 min. The cells are washed to remove antibodies and then incubated for 15 min in the presence or absence of each of compounds A, B, C, D, E, F, G, and H at concentrations of 10 fM, 1 pM, 100 pM and 10 nM respectively. After said time, nitrocefin in buffer and ±each of compounds A-H are added and the absorbance at 486 nm is measured every minute for 30 min.
Slopes of optical density are graphed as fold change over the vehicle. N=8-12; Statistics were determined by one-way ANOVA compared to antibody only (Ab). * p≤0.05, ** p≤0.01, *** p≤0.001, **** p≤0.0001 (FIG. 3).
(§4) HEK293 cells stably expressing human GluN1 and PSD-95 were transiently transfected with hGluN2B tagged at the N-terminus with the β-lactamase enzyme using X-tremeGENE9 transfection reagent (Sigma-Aldrich). Transfected cultures were maintained in media containing ketamine (0.18 mg/ml) to minimize excitotoxicity. Twenty-four hours after transfection, cells were re-plated into poly-d-lysine coated 96-well plates at a concentration of 30,000 cells/well. The following day, cells were washed with buffer (HBSS, 10 mM HEPES, […]) and then incubated with a 1:50 dilution of purified patient IgG for 45 min at 37° C. The cells were washed once with buffer and then incubated for 15 min at 37° C. with buffer ±each of compound A, B and C. Nitrocefin in buffer (100 mM final; Cayman Chemical) ±each of compound A, B and C was added to each well and absorbance at 486 nm was measured every minute for 30 min at 37° C. in a plate reader. Un-transfected (Untfx) cells were used as a negative control for surface β-lactamase activity. Human IgG (Sigma-Aldrich) at a concentration of 0.5 mg/ml was used as a negative control for non-specific receptor internalization. Slopes of optical density are graphed as fold change over vehicle, mean ±SEM (n=8-12). Statistics were determined by one-way ANOVA compared to antibody only (Ab).

[2] = target: T1, NR2B surface expression in hNR1/PSD95/NR2B expressing HEK cells; test: as above; format: cell-based; details: varying concentrations, FIG. 6A-6C
[3] = target: T1, NR2B surface expression in hNR1/PSD95/NR2B expressing HEK cells; test: β-lactamase assay, restoration of NR2B surface expression after ANRE patient CSF; format: cell-based; details: after CSF (1:10 dilution) from ANRE patients N1, N2, N3; FIG. 2
Experimental: In this example hNR1/PSD95/NR2B expressing HEK cells tagged with a β-lactamase enzyme at the N-terminus of NR2B are incubated with CSF (1:10 dilution) from each of three individual ANRE patients (N1, N2, and N3).
as §4, with “The cells were washed once with buffer and then incubated for 15 min at 37° C. with buffer ±each of compound A, B and C. Nitrocefin in buffer (100 mM final; Cayman Chemical) ±each of compound A, B and C was added to each well and absorbance at 486 nm was measured every minute for 30 min at 37° C. in a plate reader.” left out

[4] = target: T2, NR2B:R393A mutant receptors (Homo sapiens, UniProt Q13224, R393A); test: β-lactamase assay, NMDAR 2B trafficking in mutant R393A receptors; format: cell-based; details: FIG. 6A-6C; for ability to restore cell surface NR2B expression in NR2B:R393A mutant following ANRE patient serum IgG: after exposure to ANRE patient serum IgG
T2 construct: expressed in transfected cells; transient β-lactamase-hGluN2B R393A
Experimental: as §3, §4

[5] = target: T1, NR2B surface expression in hNR1/PSD95/NR2B expressing HEK cells; test: β-lactamase assay, NR2B surface expression, compound alone (absence of Ab), wild-type; format: cell-based; details: for surface NR2B expression in wild-type NR2B receptors relative to untreated vehicle controls: no antibody, varying concentrations, FIG. 6A-6C
Experimental: as §1, §2, §3, §4

[6] = tested on: Schaffer collateral-CA1 synapses in hippocampal slices; test: Hippocampal slice LTP (fEPSP slope) with focal NR1 antibody application; format: cell-based, rat; details: 500 nM bath-applied, FIG. 5B
From the text: Two extracellular recording patch pipettes were placed at equal distances (˜500 μm) on either side of a single bipolar stainless steel stimulating electrode (Frederick Haer Inc.). A single test stimulus was applied each 30 seconds, to evoke field excitatory postsynaptic potentials (fEPSPs) recorded simultaneously at the Control and Antibody (Ab) recording sites. […]
LTP was induced by the stimulation of Schaffer collateral axons with high frequency theta burst stimulus trains. The fEPSP slope was measured before and after the induction of LTP in hippocampal slices treated with control, control +NR1Ab, Compound A, or Compound A +NR1Ab.
The experimental protocol to test the effects of focal application of NR1 antibodies on synaptic transmission and long-term potentiation (LTP) of synaptic strength at Schaffer collateral-CA1 synapses in hippocampal slices in vitro is illustrated in FIG. 5A below. […] A single test stimulus was applied each 30 seconds, to evoke field excitatory postsynaptic potentials (fEPSPs) recorded simultaneously at the Control and Antibody (Ab) recording sites. […] Statistics were determined by Student's t-test for unpaired data.

T1 sequence (Q13224 27-1484, other chains not shown): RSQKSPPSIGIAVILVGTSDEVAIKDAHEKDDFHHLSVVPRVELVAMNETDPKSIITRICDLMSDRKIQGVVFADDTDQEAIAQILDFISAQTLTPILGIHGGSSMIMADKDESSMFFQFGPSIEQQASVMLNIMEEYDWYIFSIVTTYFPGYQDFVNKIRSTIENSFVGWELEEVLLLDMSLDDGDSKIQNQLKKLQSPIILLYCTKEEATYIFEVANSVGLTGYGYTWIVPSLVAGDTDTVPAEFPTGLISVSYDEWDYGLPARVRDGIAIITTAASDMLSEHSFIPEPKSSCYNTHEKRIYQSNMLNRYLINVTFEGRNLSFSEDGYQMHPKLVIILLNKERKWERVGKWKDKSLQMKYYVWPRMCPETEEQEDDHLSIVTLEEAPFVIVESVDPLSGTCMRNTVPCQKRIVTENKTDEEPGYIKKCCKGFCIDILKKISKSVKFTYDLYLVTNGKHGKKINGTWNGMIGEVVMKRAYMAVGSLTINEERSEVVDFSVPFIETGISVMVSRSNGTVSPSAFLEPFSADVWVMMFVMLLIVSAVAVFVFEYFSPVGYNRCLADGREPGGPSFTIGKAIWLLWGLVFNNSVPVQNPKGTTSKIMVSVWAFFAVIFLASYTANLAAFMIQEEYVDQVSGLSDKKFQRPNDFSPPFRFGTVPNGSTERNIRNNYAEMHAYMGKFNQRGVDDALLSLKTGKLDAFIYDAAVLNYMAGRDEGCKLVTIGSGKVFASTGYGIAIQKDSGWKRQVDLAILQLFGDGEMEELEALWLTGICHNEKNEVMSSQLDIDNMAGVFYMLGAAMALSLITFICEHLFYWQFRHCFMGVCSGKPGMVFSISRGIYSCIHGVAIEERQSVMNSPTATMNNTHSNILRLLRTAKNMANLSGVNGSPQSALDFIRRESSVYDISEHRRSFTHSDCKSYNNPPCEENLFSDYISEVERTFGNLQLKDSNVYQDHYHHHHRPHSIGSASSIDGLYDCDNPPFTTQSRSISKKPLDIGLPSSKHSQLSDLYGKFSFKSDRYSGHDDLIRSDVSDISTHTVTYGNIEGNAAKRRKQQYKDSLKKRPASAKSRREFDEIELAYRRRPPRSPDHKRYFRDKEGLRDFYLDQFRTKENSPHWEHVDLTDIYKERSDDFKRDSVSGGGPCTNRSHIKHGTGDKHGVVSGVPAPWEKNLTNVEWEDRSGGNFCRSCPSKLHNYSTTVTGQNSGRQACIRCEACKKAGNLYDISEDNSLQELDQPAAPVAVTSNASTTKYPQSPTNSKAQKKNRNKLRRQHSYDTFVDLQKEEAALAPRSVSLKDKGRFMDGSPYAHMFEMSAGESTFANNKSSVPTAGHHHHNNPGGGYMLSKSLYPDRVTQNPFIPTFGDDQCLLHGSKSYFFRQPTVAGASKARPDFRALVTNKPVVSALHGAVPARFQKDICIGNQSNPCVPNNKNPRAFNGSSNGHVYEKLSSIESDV
T2 sequence (Q13224 27-1484 R393A, other chains not shown): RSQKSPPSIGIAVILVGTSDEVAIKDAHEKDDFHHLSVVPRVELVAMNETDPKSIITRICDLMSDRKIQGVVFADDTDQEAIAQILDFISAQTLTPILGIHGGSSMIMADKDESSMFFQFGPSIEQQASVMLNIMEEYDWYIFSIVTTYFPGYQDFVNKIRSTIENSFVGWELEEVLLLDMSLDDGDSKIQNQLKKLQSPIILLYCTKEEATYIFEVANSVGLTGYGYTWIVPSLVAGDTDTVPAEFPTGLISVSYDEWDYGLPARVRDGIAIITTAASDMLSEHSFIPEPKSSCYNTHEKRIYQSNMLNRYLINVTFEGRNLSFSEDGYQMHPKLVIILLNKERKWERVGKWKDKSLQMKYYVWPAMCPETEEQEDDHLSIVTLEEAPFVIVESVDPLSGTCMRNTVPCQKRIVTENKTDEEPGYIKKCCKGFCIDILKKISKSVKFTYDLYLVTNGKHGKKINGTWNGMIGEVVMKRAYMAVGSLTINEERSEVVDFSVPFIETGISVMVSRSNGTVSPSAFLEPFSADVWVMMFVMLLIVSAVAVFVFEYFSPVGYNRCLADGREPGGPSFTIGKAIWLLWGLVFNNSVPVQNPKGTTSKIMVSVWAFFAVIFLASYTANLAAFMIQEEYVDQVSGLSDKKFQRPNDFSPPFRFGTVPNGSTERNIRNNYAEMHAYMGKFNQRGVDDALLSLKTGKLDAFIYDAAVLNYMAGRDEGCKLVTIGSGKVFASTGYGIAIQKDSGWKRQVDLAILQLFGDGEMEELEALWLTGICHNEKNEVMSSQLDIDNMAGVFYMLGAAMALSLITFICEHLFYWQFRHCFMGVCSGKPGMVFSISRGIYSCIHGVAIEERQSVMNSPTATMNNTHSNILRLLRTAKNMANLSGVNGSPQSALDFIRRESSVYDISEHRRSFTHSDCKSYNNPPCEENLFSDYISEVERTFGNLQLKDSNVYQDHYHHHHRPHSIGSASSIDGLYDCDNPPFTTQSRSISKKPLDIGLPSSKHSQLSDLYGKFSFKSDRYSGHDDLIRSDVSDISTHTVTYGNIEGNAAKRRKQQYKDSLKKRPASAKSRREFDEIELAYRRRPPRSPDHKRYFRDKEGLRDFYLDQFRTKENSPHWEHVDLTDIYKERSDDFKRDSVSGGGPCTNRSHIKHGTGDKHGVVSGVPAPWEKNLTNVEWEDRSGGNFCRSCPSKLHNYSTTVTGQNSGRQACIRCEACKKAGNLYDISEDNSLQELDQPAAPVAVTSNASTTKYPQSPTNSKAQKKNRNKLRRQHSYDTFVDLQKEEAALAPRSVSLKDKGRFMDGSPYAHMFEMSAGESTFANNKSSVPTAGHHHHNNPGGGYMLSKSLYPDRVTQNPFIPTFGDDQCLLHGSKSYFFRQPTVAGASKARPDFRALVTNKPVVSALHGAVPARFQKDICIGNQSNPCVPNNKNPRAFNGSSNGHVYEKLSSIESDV

| Compound | restoration of NR2B surface expression to "No Ab" control level [1] | restoration of NR2B surface expression to "No Ab" control level, wild-type NR2B (Example 6) [2] | restoration of cell surface NR2B expression to vehicle levels [3] | ability to restore cell surface NR2B expression in NR2B:R393A mutant [4] | ability to restore cell surface NR2B expression in NR2B:R393A mutant following ANRE patient serum IgG [4] | surface NR2B expression in wild-type NR2B receptors relative to untreated vehicle controls [5] | rescue of Schaffer collateral-CA1 LTP from acute NMDAR1 antibody effects ([6]; NR1 antibody 1:20 dilution) | magnitude of LTP relative to control ([6]; after high frequency stimulation, no antibody) | increase in cell surface NR2B expression ([5]; 1 pM, in the absence of Ab, positive control, wild-type) [%] |
| --- | --- | --- | --- | --- | --- | --- | --- | --- | --- |
| COc1ccc(CN2C[C@]3(CCNC(=O)C3)C2=O)cc1 [Compound D] | failed to restore NR2B surface expression | – | – | – | – | – | – | – | – |
| CC(C)C(=O)N1CCC[C@@]12CN([C@H](C(N)=O)[C@@H](C)O)C2=O [B] | restore NR2B surface expression to levels observed in the “No Ab” control | restore NR2B surface expression to levels observed in the “No Ab” control | restored cell surface NR2B expression to vehicle levels | abolishes the ability | abolishes the ability | increase surface NR2B expression | – | – | – |
| CC(C)C(=O)N1CCC[C@]12CN([C@H](C(N)=O)[C@@H](C)O)C2=O [Compound A] | restore NR2B surface expression to levels observed in the “No Ab” control | restore NR2B surface expression to levels observed in the “No Ab” control | restored cell surface NR2B expression to vehicle levels | abolishes the ability | abolishes the ability | increase surface NR2B expression | rescues Schaffer collateral-CA1 LTP | increased the magnitude of LTP | ~20 |
| CC(C)CN1CCC[C@]12CN([C@H](C(N)=O)[C@@H](C)O)C2=O [E] | failed to restore NR2B surface expression | – | – | – | – | – | – | – | – |
| CC(C)CN1[C@@]2(CC[C@@]13CNC3=O)CNC2=O [G] | failed to restore NR2B surface expression | – | – | – | – | – | – | – | – |
| CC(C)CN1[C@]2(CC[C@]13CNC3=O)CNC2=O [H] | failed to restore NR2B surface expression | – | – | – | – | – | – | – | – |
| COc1ccc(CN2C[C@@]3(CCNC(=O)C3)C2=O)cc1 [C] | restore NR2B surface expression to levels observed in the “No Ab” control | restore NR2B surface expression to levels observed in the “No Ab” control | restored cell surface NR2B expression to vehicle levels | abolishes the ability | abolishes the ability | increase surface NR2B expression | – | – | – |
| CC(C)CN1CCC[C@@]12CN([C@H](C(N)=O)[C@@H](C)O)C2=O [F] | failed to restore NR2B surface expression | – | – | – | – | – | – | – | – |
